Results: patent publication US20170253581A1, “SUBSTITUTED HETEROCYCLES AS c-MYC TARGETING AGENTS” (Northwestern University, priority 2016, published 2017)

Biological target: Myc/Max binding to DNA (Homo sapiens, UniProt P01106)
Assay: Electrophoretic mobility shift assay (EMSA) of Myc/Max binding to DNA
Assay type: biochemical
Settings: EMSA; for remaining activity at 100 µM: read-out: Bound DNA (%) (100uM); for remaining activity at 50 µM: read-out: Bound DNA (%) (50uM); for remaining activity at 200 µM: 200 uM test compound, read-out: Bound DNA (%) (200uM)
Procedure: We also tested our best hit compound Min9 (NUCC-0176234) and newly synthesized analogs for effects of these compounds on Myc/Max binding to DNA in electrophoretic mobility shift assays (EMSAs). (See FIG. 5a and FIG. 5b). We expected the active compounds to impair Myc/Max binding to DNA. Several strucutural analogs of Min9 were tested over multiple doses for inhibiting Myc-DNA binding and we observed a dose-dependent inhibition. (See FIG. 5c).
Additional compounds were synthesized and tested in the EMSA assay at concentrations of 200 μM, 100 μM, and 50 μM.

Sequence of Myc/Max binding to DNA (P01106 whole entry): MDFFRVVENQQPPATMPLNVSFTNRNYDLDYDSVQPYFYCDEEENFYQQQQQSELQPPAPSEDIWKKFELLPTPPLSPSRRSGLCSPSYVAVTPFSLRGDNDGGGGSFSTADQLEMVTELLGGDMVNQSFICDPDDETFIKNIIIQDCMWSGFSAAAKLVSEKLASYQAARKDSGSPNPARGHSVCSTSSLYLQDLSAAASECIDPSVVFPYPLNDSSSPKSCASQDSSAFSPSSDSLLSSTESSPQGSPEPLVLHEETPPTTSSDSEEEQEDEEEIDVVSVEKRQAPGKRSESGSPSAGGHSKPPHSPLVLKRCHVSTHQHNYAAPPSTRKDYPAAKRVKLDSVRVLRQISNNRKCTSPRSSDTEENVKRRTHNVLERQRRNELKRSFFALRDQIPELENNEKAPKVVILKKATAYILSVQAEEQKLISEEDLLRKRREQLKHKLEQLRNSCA

Compound | remaining activity at 100 µM (100 uM test compound) | also measured
CCc1ccc(Oc2c(-c3ccc(OCc4ccc(Cl)c(Cl)c4)cc3O)n[nH]c2C(F)(F)F)cc1 [compound 0196355] | 25% | –
Cn1cc(-c2ccccc2)c(-c2ccc(OCc3ccc(Cl)cc3)cc2O)n1 [compound 0198294] | 97% | –
Cn1nc(C(F)(F)F)c(-c2ccc(C(F)(F)F)cc2)c1-c1ccc(OCc2ccc(Cl)cc2)cc1O [compound 0200726] | 92% | –
Cn1nc(-c2ccc(OCc3ccc(Cl)cc3)cc2O)c(-c2cc(C(F)(F)F)cc(C(F)(F)F)c2)c1C(F)(F)F [compound 0196360] | 100% | –
COc1ccc(-c2c[nH]nc2-c2ccc(OCc3ccc(Cl)cc3)cc2O)cc1 [compound 0198304] | 98% | –
COc1cccc(-c2c(-c3ccc(OCc4ccc(Cl)cc4)cc3O)n[nH]c2C)c1 [compound 0198312] | 104% | –
COc1cccc(COc2ccc(-c3nn(C)cc3Oc3cc(C)ccc3C)c(O)c2)c1 [compound 0196289] | 136% | –
COc1cccc(-c2c(-c3ccc(OCc4ccc(Cl)cc4)cc3O)nn(C)c2C)c1 [compound 0198314] | 104% | –
Cc1ccccc1-c1c[nH]nc1-c1ccc(OCc2ccc(Cl)cc2)cc1O [compound 0198355] | 75% | –
Cn1nc(C(F)(F)F)c(-c2ccc(C(N)=O)cc2)c1-c1ccc(OCc2ccc(Cl)cc2)cc1O [compound 0198409] | 69% | –
Cn1nc(C(F)(F)F)cc1-c1ccc(N)cn1 [compound 0200688] | 103% | remaining activity at 50 µM (50 uM test compound): 102%
CCc1ccc(Oc2c(-c3ccc(OCc4cccc(Cl)c4)cc3O)nn(C)c2C(F)(F)F)cc1 [compound 0196296] | 73% | –
CCc1c(-c2cccc(OC)c2)c(-c2ccc(OCc3ccc(Cl)cc3)cc2O)nn1C [compound 0198317] | 126% | –
c1ccc(COc2ccccc2-c2nn[nH]c2-c2ccccc2)cc1 [compound 0200722] | 104% | –
Cc1cc(C)cc(-c2c[nH]nc2-c2ccc(OCc3ccc(Cl)cc3)cc2O)c1 [compound 0198352] | 56% | –
Oc1cc(Nc2ccc(Cl)cc2)ccc1-c1cc(C(F)(F)F)[nH]n1 [compound 0200679] | – | Bound DNA (%) (50uM) (50 uM test compound): 79%; Bound DNA (%) (100uM) (100 uM test compound): 38%
Cc1[nH]nc(-c2ccc(OCc3ccc(Cl)cc3)cc2O)c1-c1ccccc1 [compound 0198298] | 88% | –
Oc1ccccc1-c1cc(C(F)(F)F)n[nH]1 [compound 0200574] | 107% | –
Cn1cc(-c2cccc(Cl)c2)c(-c2ccc(OCc3ccc(Cl)cc3)cc2O)n1 [compound 0196351] | 130% | –
CCc1ccc(Oc2c(-c3ccc(OCc4ccc(Cl)c(Cl)c4)cc3O)nn(C)c2C(F)(F)F)cc1 [compound 0196354] | 82% | –
Oc1cc(OCc2ccc(Cl)cc2)ccc1-c1n[nH]cc1-c1cccc(Cl)c1 [compound 0196350] | 18% | –
CN/N=C(\C)c1ccc(-c2c(-c3ccc(OCc4ccc(Cl)cc4)cc3O)nn(C)c2C(F)(F)F)cc1 [compound 0198397] | 82% | –
Cc1ccc(C)c(Oc2c[nH]nc2-c2ccc(OCc3cccc(Cl)c3)cc2O)c1 [compound 0196286] | 65% | –
Oc1cc(OCc2ccccc2)ccc1-c1n[nH]cc1Oc1ccccc1 [NUCC-0176255] | – | remaining activity at 200 µM: 11%
CCc1ccc(Oc2c[nH]nc2-c2ccc(OCc3ccc(Cl)cc3)cc2O)cc1 [NUCC-0176243] | – | remaining activity at 200 µM: 19%
COc1ccc(-c2cn(C)nc2-c2ccc(OCc3ccc(Cl)cc3)cc2O)cc1 [compound 0198305] | 106% | –
COc1cccc(-c2cn(C)nc2-c2ccc(OCc3ccc(Cl)cc3)cc2O)c1 [compound 0198326] | 106% | –
COc1ccccc1-c1c[nH]nc1-c1ccc(OCc2ccc(Cl)cc2)cc1O [compound 0198357] | 62% | –

Now from value to compound, other results behind:

remaining activity at 100 µM (100 uM test compound) | Compound | also measured
32% | Oc1cc(OCc2ccc(Cl)cc2)ccc1-c1n[nH]cc1-c1cc(C(F)(F)F)cc(C(F)(F)F)c1 [compound 0198318] | –
42% | Oc1cc(NCc2ccc(Cl)cc2)ccc1-c1cc(C(F)(F)F)[nH]n1 [compound 0200493] | remaining activity at 50 µM (50 uM test compound): 92%
99% | Oc1cc(OCc2ccc(Cl)cc2)ccc1-c1n[nH]c(C(F)(F)F)c1Cc1ccccc1Cl [compound 0200490] | remaining activity at 50 µM (50 uM test compound): 97%
39% | Oc1cc(Nc2ccc(F)c(F)c2)ccc1-c1cc(C(F)(F)F)[nH]n1 [compound 0200559] | remaining activity at 50 µM (50 uM test compound): 76%
109% | Oc1cc(OCc2ccc(Cl)cc2)ccc1-c1cc(C(F)(F)F)nc(-c2cccc(C(F)(F)F)c2)n1 [compound 0200500] | remaining activity at 50 µM (50 uM test compound): 100%
89% | Oc1cc(OCc2ccc(Cl)cc2)ccc1-c1n[nH]c(C(F)(F)F)c1-c1ccc(C(F)(F)F)c(Cl)c1 [compound 0200728] | –
99% | Cn1cc(C(F)(F)F)c(-c2ccc(NCc3ccc(Cl)cc3)cn2)n1 [compound 0200742] | –
62% | Cn1nc(-c2ccc(OCc3ccc(Cl)cc3)cc2O)c(-c2cccc(C(F)(F)F)c2)c1C(F)(F)F [compound 0200731] | remaining activity at 50 µM (50 uM test compound): 77%
74% | Cn1nc(C(F)(F)F)c(-c2ccccc2)c1-c1ccc(OCc2ccc(Cl)cc2)cc1O [compound 0198296] | –
86% | Cn1nc(-c2ccc(OCc3ccc(Cl)cc3)cc2O)c(-c2ccc(F)c(C(F)(F)F)c2)c1C(F)(F)F [compound 0200736] | –
96% | Cn1cc(-c2cc(C(F)(F)F)cc(C(F)(F)F)c2)c(-c2ccc(OCc3ccc(Cl)cc3)cc2O)n1 [compound 0198319] | –
2% | COc1cccc(-c2c(-c3ccc(OCc4ccc(Cl)cc4)cc3O)n[nH]c2C(F)(F)F)c1 [compound 0198309] | –
91% | Cn1nc(C(F)(F)F)cc1-c1ccc(OCc2ccc(Cl)cc2)cc1O [compound 0198412] | –
47% | Oc1cc(OCc2ccc(Cl)cc2)ccc1-c1n[nH]c(C(F)(F)F)c1-c1ccc(F)cc1 [compound 0196347] | –
72% | N#Cc1cccc(-c2c(C(F)(F)F)n[nH]c2-c2cc(OCc3ccc(Cl)cc3)ccc2O)c1 [compound 0200571] | remaining activity at 50 µM (50 uM test compound): 87%
104% | N#Cc1cc(-c2ccc(Nc3ccc(Cl)cc3)cc2O)n[nH]1 [compound 0200678] | –
94% | Nc1nc(-c2ccc(OCc3ccc(Cl)cc3)cc2O)cc(C(F)(F)F)n1 [compound 0200502] | remaining activity at 50 µM (50 uM test compound): 64%
91% | Oc1cc(OCc2ccc(Cl)cc2)ccc1-c1n[nH]c(C(F)(F)F)c1-c1ccc(F)c(C(F)(F)F)c1 [compound 0200734] | –
109% | C/C(=N\N)c1ccc(-c2c(-c3ccc(OCc4ccc(Cl)cc4)cc3O)n[nH]c2C(F)(F)F)cc1 [compound 0198395] | –
91% | Oc1cc(Nc2ccc(-n3ccnc3)cc2)ccc1-c1cc(C(F)(F)F)[nH]n1 [compound 0200569] | remaining activity at 50 µM (50 uM test compound): 89%
100% | FC(F)(F)c1cc2n(n1)-c1ccccc1Oc1cc(OCc3ccc(Cl)cc3)ccc1-2 [compound 0200577] | –
